Results from ChEMBL document CHEMBL1157334, “Neuroprotective diterpenes from the fruiting body of Antrodia camphorata” (2006).

Assays:
[1] = Neuroprotective effect against amyloid beta(25 to 35)-induced cell death in Harlan Sprague-Dawley rat pups cortical neurons assessed as cell death at 20 uM treated 2 hrs before amyloid beta(25 to 35) treatment after 40 hrs by MTT assay; settings: for cell death at 20 µM: Rattus norvegicus, Harlan Sprague-Dawley, Cortical neurone
[2] = Neuroprotective effect against amyloid beta(25 to 35)-induced cell death in Harlan Sprague-Dawley rat pups cortical neurons assessed as cell death at 10 uM treated 2 hrs before amyloid beta(25 to 35) treatment after 40 hrs by MTT assay

| SMILES | cell death at 20 µM [1] [%] | cell death [2] [%] | cell death [1] [%] |
| --- | --- | --- | --- |
| C=C1CC[C@@H]2[C@](C)(CO)[C@H](O)CC[C@@]2(C)[C@@H]1/C=C/C1=CCOC1=O | 29.5 |  |  |
| C=C1CC[C@@H]2[C@](C)(CC[C@H](O)[C@]2(C)CO)[C@H]1/C=C/C1CCOC1=O (stereo in doubt; 2) |  | 29.5 | 26.3 |
| C=C1CC[C@H]2[C@@](C)(CO)CCC[C@]2(C)[C@H]1CCC1CCOC1=O (some centres not stated) | 30.8 |  |  |
| C=C1CC[C@H]2[C@@](C)(CO)CCC[C@]2(C)[C@H]1CCC1=CCOC1=O | 32.6 |  |  |
| CC(=O)N[C@@H](CC(=O)O)C(=O)N[C@@H](CCC(=O)O)C(=O)N[C@H](C(=O)N[C@H](C=O)CC(=O)O)C(C)C | 23.1 |  |  |
| C=C1CC[C@@H]2[C@](C)(CC[C@H](O)[C@]2(C)CO)[C@H]1/C=C/C1CCOC1=O (stereo in doubt; 3) | 29.3 |  |  |
